Results from ChEMBL document CHEMBL4024712, “Synthesis, stability and mechanistic studies of potent anticryptococcal hexapeptides” (Eur J Med Chem, 2017).
Values after ≈ are worked out from the molar mass of the structure shown. Non-standard residues stand in square brackets, D forms with d. Residues, ends and D or L forms follow the SMILES beside them. His(τ-Bzl) = N[C@@H](Cc1cn(Cc2ccccc2)cn1)C(=O)O; Phe(4-Me) = Cc1ccc(C[C@H](N)C(=O)O)cc1; 1Nal = N[C@@H](Cc1cccc2ccccc12)C(=O)O; Cha = N[C@@H](CC1CCCCC1)C(=O)O; Orn = NCCC[C@H](N)C(=O)O; Dab = NCC[C@H](N)C(=O)O

What was measured:
Candida albicans [1] = test: Antifungal activity against Candida albicans ATCC 90028 after 18 to 24 hrs by Alamar blue assay; assay type: functional
Escherichia coli [2] = test: Anti-bacterial activity against Escherichia coli ATCC 35218 by CLSI method; assay type: functional; settings: for MIC: Escherichia coli, ATCC 35218
Pseudomonas aeruginosa = test: Anti-bacterial activity against Pseudomonas aeruginosa ATCC 27853 by CLSI method; assay type: functional
Vero = test: Cytotoxicity against African green monkey Vero cells up to 10 ug/ml after 48 hrs by neutral red dye based assay; assay type: cell-based; settings: chlorocebus sabaeus
Staphylococcus aureus [3] = test: Anti-bacterial activity against Staphylococcus aureus ATCC 29213 by CLSI method; assay type: functional; settings: Staphylococcus aureus, ATCC 29213
Nakaseomyces glabratus = test: Antifungal activity against Candida glabrata ATCC 90030 after 18 to 24 hrs by Alamar blue assay; assay type: functional
Staphylococcus aureus [4] = test: Bactericidal activity against Staphylococcus aureus ATCC 29213 by CLSI method; assay type: functional
Escherichia coli [5] = test: Bactericidal activity against Escherichia coli ATCC 35218 by CLSI method; assay type: functional
Pichia kudriavzevii [6] = test: Antifungal activity against Candida krusei ATCC 6258 after 18 to 24 hrs by Alamar blue assay; assay type: functional; settings: Pichia kudriavzevii, ATCC 6258
Cryptococcus neoformans [7] = test: Antifungal activity against Cryptococcus neoformans ATCC 90113 after 68 to 72 hrs by Alamar blue assay; assay type: functional
Staphylococcus aureus [8] = test: Anti-bacterial activity against methicillin-resistant Staphylococcus aureus ATCC 33591 by CLSI method; assay type: functional; settings: Staphylococcus aureus, ATCC 33591
Pichia kudriavzevii [9] = test: Fungicidal activity against Candida krusei ATCC 6258 after 18 to 24 hrs by Alamar blue assay; assay type: functional
Aspergillus fumigatus = test: Antifungal activity against Aspergillus fumigatus ATCC 90906 after 68 to 72 hrs by Alamar blue assay; assay type: functional
[10] = test system: Mycobacterium intracellulare; test: Anti-bacterial activity against Mycobacterium intracellulare ATCC 23068 after 68 to 72 hrs by Alamar blue assay; assay type: functional, cell-based; settings: for MIC: Mycobacterium intracellulare, ATCC 23068
[11] = test system: Mycobacterium intracellulare; test: Bactericidal activity against Mycobacterium intracellulare ATCC 23068 after 68 to 72 hrs by Alamar blue assay; assay type: functional
Cryptococcus neoformans [12] = test: Fungicidal activity against Cryptococcus neoformans ATCC 90113 after 68 to 72 hrs by Alamar blue assay; assay type: functional
Candida albicans [13] = test: Fungicidal activity against Candida albicans ATCC 90028 after 18 to 24 hrs by Alamar blue assay; assay type: functional
Staphylococcus aureus [14] = test: Bactericidal activity against methicillin-resistant Staphylococcus aureus ATCC 33591 by CLSI method; assay type: functional

Which IC50 (Candida albicans [1]) does the source give for `Cc1ccc(C[C@H](NC(=O)[C@@H](Cc2ccccc2)NC(=O)[C@@H](Cc2c[nH]c3ccccc23)NC(=O)[C@@H](N)CCCCN)C(=O)N[C@H](Cc2ccccc2)C(=O)N[C@@H](Cc2cn(Cc3ccccc3)cn2)C(N)=O)cc1` (H-K[dW][dF][Phe(4-Me)][dF][His(τ-Bzl)]-NH2) here?
The IC50 was “Not Active”.

And the MIC (Escherichia coli [2])?
The MIC was 20 mg/L (≈ 19.7 µM).

And the IC50 (Pseudomonas aeruginosa)?
The IC50 was “Not Active”.

And the Activity (Vero)?
Its Activity is “Non-Toxic”.

What about the MIC (Staphylococcus aureus [3]) of the same compound?
Its MIC is 20 mg/L (≈ 19.7 µM).

And the IC50 (Nakaseomyces glabratus)?
The IC50 was “Not Active”.

What about the MBC (Staphylococcus aureus [4]) of the same compound?
Its MBC is 20 mg/L (≈ 19.7 µM).

What about the MBC (Escherichia coli [5]) of the same compound?
The MBC was 20 mg/L (≈ 19.7 µM).

And the MIC (Pichia kudriavzevii [6])?
The MIC was 20 mg/L (≈ 19.7 µM).

What about the MIC (Cryptococcus neoformans [7]) of the same compound?
The MIC was 2.5 mg/L (≈ 2.46 µM).

What about the MIC (Staphylococcus aureus [8]) of the same compound?
Its MIC is 20 mg/L (≈ 19.7 µM).

And the MFC (Pichia kudriavzevii [9])?
The MFC was 20 mg/L (≈ 19.7 µM).

What about the IC50 (Aspergillus fumigatus) of the same compound?
Its IC50 is “Not Active”.

What about the MIC [10] of the same compound?
Its MIC is 20 mg/L (≈ 19.7 µM).

And the MBC [11]?
Its MBC is 20 mg/L (≈ 19.7 µM).

`Cc1ccc(C[C@H](NC(=O)[C@@H](Cc2ccccc2)NC(=O)[C@@H](Cc2c[nH]c3ccccc23)NC(=O)[C@@H](N)CCCNC(=N)N)C(=O)N[C@H](Cc2ccccc2)C(=O)N[C@@H](Cc2cn(Cc3ccccc3)cn2)C(N)=O)cc1` (H-R[dW][dF][Phe(4-Me)][dF][His(τ-Bzl)]-NH2) was tested. Which MIC (Candida albicans [1]; Candida albicans, ATCC 90028) did it give?
The MIC was 20 mg/L (≈ 19.2 µM).

What about the MFC (Cryptococcus neoformans [12]) of the same compound?
The MFC was 2.5 mg/L (≈ 2.4 µM).

What about the MIC (Escherichia coli [2]) of the same compound?
The MIC was 10 mg/L (≈ 9.59 µM).

And the IC50 (Pseudomonas aeruginosa)?
Its IC50 is “Not Active”.

What about the Activity (Vero) of the same compound?
The Activity was “Non-Toxic”.

What about the IC50 (Nakaseomyces glabratus) of the same compound?
The IC50 was “Not Active”.

What about the MBC (Staphylococcus aureus [4]) of the same compound?
The MBC was 20 mg/L (≈ 19.2 µM).

And the MFC (Candida albicans [13])?
Its MFC is 20 mg/L (≈ 19.2 µM).

And the MBC (Escherichia coli [5])?
Its MBC is 20 mg/L (≈ 19.2 µM).

And the MIC (Pichia kudriavzevii [6])?
Its MIC is 20 mg/L (≈ 19.2 µM).

What about the MIC (Cryptococcus neoformans [7]) of the same compound?
The MIC was 2.5 mg/L (≈ 2.4 µM).

What about the MIC (Staphylococcus aureus [8]) of the same compound?
Its MIC is 20 mg/L (≈ 19.2 µM).

What about the IC50 (Aspergillus fumigatus) of the same compound?
The IC50 was “Not Active”.

And the MBC [11]?
Its MBC is 10 mg/L (≈ 9.59 µM).

What about the MBC (Staphylococcus aureus [14]) of the same compound?
Its MBC is 20 mg/L (≈ 19.2 µM).

What does the source list for `Cc1ccc(C[C@H](NC(=O)[C@@H](Cc2ccccc2)NC(=O)[C@@H](Cc2c[nH]c3ccccc23)NC(=O)[C@@H](N)CCN)C(=O)N[C@H](Cc2ccccc2)C(=O)N[C@@H](Cc2cn(Cc3ccccc3)cn2)C(N)=O)cc1` (H-[Dab][dW][dF][Phe(4-Me)][dF][His(τ-Bzl)]-NH2)?
MFC (Cryptococcus neoformans [12]): 1.25 mg/L (≈ 1.27 µM); MIC (Staphylococcus aureus [3]): 20 mg/L (≈ 20.3 µM); MBC (Staphylococcus aureus [4]): 20 mg/L (≈ 20.3 µM); MBC (Staphylococcus aureus [14]): 20 mg/L (≈ 20.3 µM)

For `CC[C@H](C)[C@H](NC(=O)[C@H](CC1CCCCC1)NC(=O)[C@H](CC1CCCCC1)NC(=O)[C@@H](N)CCCN)C(=O)N[C@H](Cc1ccccc1)C(=O)N[C@@H](Cc1cn(Cc2ccccc2)cn1)C(N)=O` (H-[Orn][Cha][Cha]I[dF][His(τ-Bzl)]-NH2), which IC50 (Candida albicans [1]) is on record?
The IC50 was “Not Active”.

What about the MIC (Escherichia coli [2]) of the same compound?
Its MIC is 20 mg/L (≈ 21.6 µM).

And the IC50 (Pseudomonas aeruginosa)?
Its IC50 is “Not Active”.

What about the Activity (Vero) of the same compound?
The Activity was “Non-Toxic”.

And the IC50 (Nakaseomyces glabratus)?
The IC50 was “Not Active”.

And the MBC (Escherichia coli [5])?
The MBC was 20 mg/L (≈ 21.6 µM).

And the MFC (Pichia kudriavzevii [9])?
The MFC was 20 mg/L (≈ 21.6 µM).

And the IC50 (Aspergillus fumigatus)?
The IC50 was “Not Active”.

What about the IC50 [10] of the same compound?
Its IC50 is “Not Active”.

For `CC[C@H](C)[C@H](NC(=O)[C@H](CC1CCCCC1)NC(=O)[C@@H](Cc1c[nH]c2ccccc12)NC(=O)[C@@H](N)CCCN)C(=O)N[C@@H](Cc1cccc2ccccc12)C(=O)N[C@@H](Cc1cn(Cc2ccccc2)cn1)C(N)=O` (H-[Orn][dW][Cha]I[1Nal][His(τ-Bzl)]-NH2), which IC50 (Candida albicans [1]) is on record?
The IC50 was “Not Active”.

What about the IC50 (Escherichia coli [2]) of the same compound?
The IC50 was “Not Active”.

And the IC50 (Pseudomonas aeruginosa)?
Its IC50 is “Not Active”.

And the Activity (Vero)?
The Activity was “Non-Toxic”.

And the MIC (Staphylococcus aureus [3])?
The MIC was 20 mg/L (≈ 19.8 µM).

And the IC50 (Nakaseomyces glabratus)?
Its IC50 is “Not Active”.

What about the MBC (Staphylococcus aureus [4]) of the same compound?
Its MBC is 20 mg/L (≈ 19.8 µM).

What about the MIC (Pichia kudriavzevii [6]) of the same compound?
Its MIC is 10 mg/L (≈ 9.92 µM).

What about the MIC (Cryptococcus neoformans [7]) of the same compound?
The MIC was 1.25 mg/L (≈ 1.24 µM).

And the IC50 (Aspergillus fumigatus)?
The IC50 was “Not Active”.

And the IC50 [10]?
The IC50 was “Not Active”.

And the MBC (Staphylococcus aureus [14])?
Its MBC is 10 mg/L (≈ 9.92 µM).

How did the IC50 (Candida albicans [1]) turn out when `CC(C)C[C@H](NC(=O)[C@H](CC1CCCCC1)NC(=O)[C@@H](Cc1c[nH]c2ccccc12)NC(=O)[C@@H](N)CCCN)C(=O)N[C@H](Cc1ccccc1)C(=O)N[C@@H](Cc1cn(Cc2ccccc2)cn1)C(N)=O` (H-[Orn][dW][Cha]L[dF][His(τ-Bzl)]-NH2) was run?
The IC50 was “Not Active”.

What about the IC50 (Escherichia coli [2]) of the same compound?
Its IC50 is “Not Active”.

And the IC50 (Pseudomonas aeruginosa)?
Its IC50 is “Not Active”.

What about the Activity (Vero) of the same compound?
Its Activity is “Non-Toxic”.

What about the IC50 (Nakaseomyces glabratus) of the same compound?
Its IC50 is “Not Active”.

What about the MBC (Staphylococcus aureus [4]) of the same compound?
Its MBC is 20 mg/L (≈ 20.9 µM).

And the MIC (Pichia kudriavzevii [6])?
Its MIC is 20 mg/L (≈ 20.9 µM).

And the MIC (Cryptococcus neoformans [7])?
The MIC was 5 mg/L (≈ 5.22 µM).

And the MFC (Pichia kudriavzevii [9])?
The MFC was 20 mg/L (≈ 20.9 µM).

And the IC50 (Aspergillus fumigatus)?
Its IC50 is “Not Active”.

What about the MIC [10] of the same compound?
The MIC was 20 mg/L (≈ 20.9 µM).

What about the MBC [11] of the same compound?
The MBC was 20 mg/L (≈ 20.9 µM).
